Measurements as given in PubChem BioAssay AID256 (DTP/NCI, 2004).
Several values for one entry are separate records, joined by “and”; a condition that tells them apart may be missing. Identical values can stand only once. Toxic doses and inconclusive results are not listed. How the source made its calls: active means survival T/C of 150% or more; inactive means T/C below 125% in these data.

Tested on: CD2F1 mice, L1210 leukemia ip, survival T/C
Experiment: NCI In Vivo Anticancer Drug Screen. Data for tumor model L1210 Leukemia (intraperitoneal) in CD2F1 (CDF1) mice
Conditions: higher = longer survival
In short: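 Antitumor effect is scored in animals hosting a serially transplanted tumor. Values compare compound-dosed animals against vehicle-only controls as a simple quotient.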

[1] = endpoint: mean survival time, dose: 50.0 mg/kg/injection, schedule: Q04DX002 (ip), vehicle: saline with Tween-80
[2] = endpoint: mean survival time, dose: 100.0 mg/kg/injection, schedule: Q04DX002 (ip), vehicle: saline with Tween-80
[3] = endpoint: mean survival time, dose: 200.0 mg/kg/injection, schedule: Q04DX002 (ip), vehicle: saline with Tween-80
[4] = endpoint: mean survival time, dose: 50.0 mg/kg/injection, schedule: Q01DX009 (ip), vehicle: saline
[5] = endpoint: mean survival time, dose: 100.0 mg/kg/injection, schedule: Q01DX001 (ip), vehicle: saline
[6] = endpoint: mean survival time, dose: 100.0 mg/kg/injection, schedule: Q01DX009 (ip), vehicle: saline with Tween-80
[7] = endpoint: mean survival time, dose: 200.0 mg/kg/injection, schedule: Q01DX009 (ip), vehicle: saline with Tween-80
[8] = endpoint: mean survival time, dose: 400.0 mg/kg/injection, schedule: Q01DX009 (ip), vehicle: saline with Tween-80
[9] = endpoint: mean survival time, dose: 100.0 mg/kg/injection, schedule: Q01DX001 (ip), vehicle: saline with Tween-80
[10] = endpoint: mean survival time, dose: 200.0 mg/kg/injection, schedule: Q01DX001 (ip), vehicle: saline with Tween-80
[11] = endpoint: mean survival time, dose: 400.0 mg/kg/injection, schedule: Q01DX001 (ip), vehicle: saline with Tween-80

Measured: T/C

O=C1C=CC(=O)N1c1ccc(Br)cc1 (tested in a mixture with another compound)
inactive: endpoint: mean survival time, dose: 100.0 mg/kg/injection, schedule: Q01DX009 (ip), vehicle: acetone 98 % of control | endpoint: mean survival time, dose: 200.0 mg/kg/injection, schedule: Q01DX009 (ip), vehicle: acetone 95 % of control

C=CCC(C(=O)OC)(C(=O)OC)c1ccc(OC)c(OC)c1
inactive: endpoint: mean survival time, dose: 75.0 mg/kg/injection, schedule: Q01DX001 (ip), vehicle: saline 100 % of control | endpoint: mean survival time, dose: 150.0 mg/kg/injection, schedule: Q01DX001 (ip), vehicle: saline 96 % of control | endpoint: mean survival time, dose: 300.0 mg/kg/injection, schedule: Q01DX001 (ip), vehicle: saline 98 % of control

COc1ccc(COC(=O)Nc2ccc(C)cc2)cc1
inactive: [1] 100 % of control | [2] 100 % of control | [3] 96 % of control

NC(=O)CC(NC(c1ccccc1)(c1ccccc1)c1ccccc1)C(=O)ON1C(=O)CCC1=O (stereo not drawn)
inactive: endpoint: mean survival time, dose: 100.0 mg/kg/injection, schedule: Q01DX001 (ip), vehicle: saline sonified 96 % of control | endpoint: mean survival time, dose: 200.0 mg/kg/injection, schedule: Q01DX001 (ip), vehicle: saline sonified 98 % of control | endpoint: mean survival time, dose: 400.0 mg/kg/injection, schedule: Q01DX001 (ip), vehicle: saline sonified 105 % of control

Clc1ccc(CSC2=NCCN2)cc1
inactive: endpoint: mean survival time, dose: 12.5 mg/kg/injection, schedule: Q01DX009 (ip), vehicle: saline 87 % of control | endpoint: mean survival time, dose: 25.0 mg/kg/injection, schedule: Q01DX009 (ip), vehicle: saline 87 % of control | [4] 90 % of control

CC1OC(OC2C(O)CC(OC3C(O)CC(OC4CCC5(C)C(CCC6C5CCC5(C)C(C7=CC(=O)OC7)CCC65O)C4)OC3C)OC2C)CC(O)C1O (stereo not drawn)
inactive: endpoint: median survival time, dose: 0.5 mg/kg/injection, schedule: Q01DX005 (iv), vehicle: water 109 % of control | endpoint: median survival time, dose: 0.5 mg/kg/injection, schedule: Q01DX010 (ip), vehicle: water 106 % of control | endpoint: median survival time, dose: 1.0 mg/kg/injection, schedule: Q01DX005 (iv), vehicle: water 108 % of control | endpoint: median survival time, dose: 1.0 mg/kg/injection, schedule: Q01DX010 (ip), vehicle: water 108 % of control | endpoint: median survival time, dose: 1.0 mg/kg/injection, schedule: Q04DX003 (ip), vehicle: water 101 % of control | endpoint: median survival time, dose: 1.0 mg/kg/injection, schedule: Q04DX003 (iv), vehicle: water 111 % of control | endpoint: median survival time, dose: 2.0 mg/kg/injection, schedule: Q01DX005 (iv), vehicle: water 97 % of control | endpoint: median survival time, dose: 2.0 mg/kg/injection, schedule: Q01DX010 (ip), vehicle: water 109 % of control | endpoint: median survival time, dose: 2.0 mg/kg/injection, schedule: Q04DX003 (ip), vehicle: water 101 % of control | endpoint: median survival time, dose: 2.0 mg/kg/injection, schedule: Q04DX003 (iv), vehicle: water 109 % of control | endpoint: median survival time, dose: 4.0 mg/kg/injection, schedule: Q01DX005 (iv), vehicle: water 108 % of control | endpoint: median survival time, dose: 4.0 mg/kg/injection, schedule: Q01DX010 (ip), vehicle: water 108 % of control | endpoint: median survival time, dose: 4.0 mg/kg/injection, schedule: Q04DX003 (ip), vehicle: water 107 % of control | endpoint: median survival time, dose: 4.0 mg/kg/injection, schedule: Q04DX003 (iv), vehicle: water 110 % of control | endpoint: median survival time, dose: 8.0 mg/kg/injection, schedule: Q01DX005 (iv), vehicle: water 90 % of control | endpoint: median survival time, dose: 8.0 mg/kg/injection, schedule: Q04DX003 (ip), vehicle: water 98 % of control | endpoint: median survival time, dose: 8.0 mg/kg/injection, schedule: Q04DX003 (iv), vehicle: water 110 % of control | endpoint: median survival time, dose: 16.0 mg/kg/injection, schedule: Q04DX003 (ip), vehicle: water 101 % of control | endpoint: median survival time, dose: 16.0 mg/kg/injection, schedule: Q04DX003 (iv), vehicle: water 76 % of control

Cc1cn(C2CC(OP(=O)(O)OCC3OC(n4cc(C)c(=O)[nH]c4=O)CC3OP(=O)(O)OCC3OC(n4cc(C)c(=O)[nH]c4=O)CC3OP(=O)(O)OCC3OC(n4cc(C)c(=O)[nH]c4=O)CC3OP(=O)(O)OCC3OC(n4ccc(N)nc4=O)C(O)C3O)C(CO)O2)c(=O)[nH]c1=O (stereo not drawn)
inactive: endpoint: median survival time, dose: 25.0 mg/kg/injection, schedule: Q01DX005 (ip), vehicle: saline 111 % of control | endpoint: median survival time, dose: 50.0 mg/kg/injection, schedule: Q01DX005 (ip), vehicle: saline 114 % of control | endpoint: median survival time, dose: 100.0 mg/kg/injection, schedule: Q01DX005 (ip), vehicle: saline 124 % of control

C=C[Si]12OCCN(CCO1)CCO2
inactive: endpoint: mean survival time, dose: 12.5 mg/kg/injection, schedule: Q01DX009 (ip), vehicle: Klucel (hydroxypropylcellulose) (HPC) 97 % of control and 105 % of control | endpoint: mean survival time, dose: 25.0 mg/kg/injection, schedule: Q01DX009 (ip), vehicle: Klucel (hydroxypropylcellulose) (HPC) 95 % of control and 96 % of control | endpoint: mean survival time, dose: 50.0 mg/kg/injection, schedule: Q01DX009 (ip), vehicle: Klucel (hydroxypropylcellulose) (HPC) 92 % of control and 100 % of control | endpoint: mean survival time, dose: 100.0 mg/kg/injection, schedule: Q01DX009 (ip), vehicle: Klucel (hydroxypropylcellulose) (HPC) 92 % of control and 94 % of control | endpoint: mean survival time, dose: 200.0 mg/kg/injection, schedule: Q01DX009 (ip), vehicle: Klucel (hydroxypropylcellulose) (HPC) 88 % of control and 94 % of control | endpoint: mean survival time, dose: 400.0 mg/kg/injection, schedule: Q01DX009 (ip), vehicle: Klucel (hydroxypropylcellulose) (HPC) 88 % of control and 95 % of control

CCC(C)CC(C)N (stereo not drawn)
inactive: [5] 104 % of control

CC1(C)N=C(N)N=C(N)N1c1cccc([N+](=O)[O-])c1
inactive: [2] 96 % of control

CC(O)C(O)C=O (stereo not drawn)
inactive: endpoint: mean survival time, dose: 72.0 mg/kg/injection, schedule: Q03HX008 (ip), vehicle: saline 100 % of control | endpoint: mean survival time, dose: 120.0 mg/kg/injection, schedule: Q03HX008 (ip), vehicle: saline 97 % of control | endpoint: mean survival time, dose: 200.0 mg/kg/injection, schedule: Q03HX008 (ip), vehicle: saline 102 % of control | endpoint: mean survival time, dose: 248.0 mg/kg/injection, schedule: Q01DX009 (ip), vehicle: saline 101 % of control | endpoint: mean survival time, dose: 346.0 mg/kg/injection, schedule: Q01DX009 (ip), vehicle: saline 104 % of control | endpoint: mean survival time, dose: 576.0 mg/kg/injection, schedule: Q01DX001 (ip), vehicle: saline 97 % of control | endpoint: mean survival time, dose: 576.0 mg/kg/injection, schedule: Q01DX009 (ip), vehicle: saline 107 % of control | endpoint: mean survival time, dose: 960.0 mg/kg/injection, schedule: Q01DX001 (ip), vehicle: saline 94 % of control | endpoint: mean survival time, dose: 1600.0 mg/kg/injection, schedule: Q01DX001 (ip), vehicle: saline 102 % of control

CC(C)C(Br)C(=O)NCC(=O)O (stereo not drawn)
inactive: [6] 103 % of control | [7] 97 % of control | [8] 98 % of control

OC[CH2][Hg][Br]
inactive: endpoint: mean survival time, dose: 0.37 mg/kg/injection, schedule: Q01DX009 (ip), vehicle: saline 90 % of control | endpoint: mean survival time, dose: 0.75 mg/kg/injection, schedule: Q01DX009 (ip), vehicle: saline 92 % of control | endpoint: mean survival time, dose: 1.5 mg/kg/injection, schedule: Q01DX009 (ip), vehicle: saline 95 % of control | endpoint: mean survival time, dose: 3.0 mg/kg/injection, schedule: Q01DX009 (ip), vehicle: saline 93 % of control

Nc1c(Cl)cccc1Cl (tested in a mixture with another compound)
inactive: [9] 89 % of control | [6] 99 % of control | [10] 91 % of control | [7] 98 % of control | [11] 91 % of control | [8] 107 % of control

O=S(c1cc(Cl)ccc1O)c1cc(Cl)ccc1O
inactive: endpoint: mean survival time, dose: 100.0 mg/kg/injection, schedule: Q04DX003 (ip), vehicle: saline with Tween-80 98 % of control | endpoint: mean survival time, dose: 200.0 mg/kg/injection, schedule: Q04DX003 (ip), vehicle: saline with Tween-80 89 % of control

O=C(O)C(O)C(O)C1[O][Sb][O]C1CO (stereo not drawn)
inactive: endpoint: mean survival time, dose: 50.0 mg/kg/injection, schedule: Q01DX001 (ip), vehicle: saline 97 % of control | [4] 95 % of control | endpoint: mean survival time, dose: 50.0 mg/kg/injection, schedule: Q04DX003 (ip), vehicle: saline 91 % of control | [5] 93 % of control | endpoint: mean survival time, dose: 100.0 mg/kg/injection, schedule: Q01DX009 (ip), vehicle: saline 96 % of control | endpoint: mean survival time, dose: 100.0 mg/kg/injection, schedule: Q04DX003 (ip), vehicle: saline 92 % of control | endpoint: mean survival time, dose: 200.0 mg/kg/injection, schedule: Q01DX001 (ip), vehicle: saline 98 % of control | endpoint: mean survival time, dose: 200.0 mg/kg/injection, schedule: Q01DX009 (ip), vehicle: saline 96 % of control | endpoint: mean survival time, dose: 200.0 mg/kg/injection, schedule: Q04DX003 (ip), vehicle: saline 92 % of control

CC(=O)Nc1c(C#N)c(C#N)nn1C
inactive: [1] 98 % of control | [2] 106 % of control | [3] 102 % of control

CC(=O)Nc1ccc(Cc2[nH]c(=O)[nH]c(=O)c2Br)cc1[N+](=O)[O-]
inactive: [9] 95 % of control | [10] 91 % of control | [11] 89 % of control
